{"source": "paper PMC9228535", "about": "“Antistaphylococcal Activities and ADME-Related Properties of Chlorinated Arylcarbamoylnaphthalenylcarbamates” (Pharmaceuticals, 2022)", "key": {"[1]": {"test_system": "Enterococcus faecalis ATCC 29212", "assay": "MIC, microtitration broth method", "format": "cell-based", "experimental": "(§1) In vitro antibacterial activity of the synthesized compounds was evaluated against representatives of multidrug-resistant bacteria, three clinical isolates of methicillin-resistant S. aureus: clinical isolate of animal origin, MRSA 63718 (Department of Infectious Diseases and Microbiology, Faculty of Veterinary Medicine, University of Veterinary Sciences Brno, Czech Republic), carrying the mecA gene; and MRSA SA 630 [46] and MRSA SA 3202 [46] (National Institute of Public Health, Prague, Czech Republic), both of human origin. Suspected colonies were confirmed by PCR; a 108bp fragment specific for S. aureus was detected. All isolates were tested for the presence of the mecA gene encoding methicillin resistance. […] Vancomycin-susceptible methicillin-susceptible S. aureus (VS-MSSA) ATCC 29213, obtained from the American Type Culture Collection, was used as the reference and quality control strain. Enterococcus faecalis ATCC 29212 was obtained from the American Type Culture Collection and used as the reference and quality control strain.\n(§2) The minimum inhibitory concentrations (MICs) were evaluated by the microtitration broth method according to the CLSI [64, 65] with some modifications. The compounds were dissolved in DMSO (Sigma, St. Louis, MO, USA) to get a concentration […] and diluted in a microtitration plate in an appropriate medium, namely, Cation Adjusted Mueller–Hinton (CaMH, Oxoid, Basingstoke, UK) for staphylococci (S. aureus ATCC 29213, clinical isolates of MRSA 63718, SA 630, and SA 3202) and brain heart infusion (BHI, Oxoid) for E. faecalis ATCC 29212, to reach the final concentration of 256-0.125 µg/mL. The plate was inoculated by the tested microorganisms. The final concentration of bacterial cells was 10^5 for bacteria. Ampicillin (Sigma) was used as reference drugs. A drug-free control and a sterility control were included. The plates were incubated for 24 h at 37 °C for staphylococci and E. faecalis ATCC 29212 (stability evaluation of the carbamates, see Supplementary materials, Table S1). […] The experiments were repeated three times."}, "[2]": {"test_system": "S. aureus and MRSA isolates", "assay": "Antistaphylococcal MIC, summary over strains", "format": "cell-based, Staphylococcus aureus", "details": "Staphylococcus aureus, read-out: MICs", "experimental": "All the investigated compounds were screened for in vitro antibacterial activity against the reference and quality control strain Staphylococcus aureus ATCC 29213 and clinical isolates of methicillin-resistant S. aureus (MRSA) 63718, SA 630, and SA 3202 [14]. Activities are expressed as the minimum inhibitory concentrations (MICs), see Table 2. In addition to the MICs, the minimum bactericidal concentrations (MBCs) were also determined. […] MBC values that meet this requirement, i.e., the compound is bactericidal, are indicated in bold in Table 2.\nas §1\nThe minimum inhibitory concentrations (MICs) were evaluated by the microtitration broth method according to the CLSI [64, 65] with some modifications. […]"}, "[3]": {"assay": "Stability of ethyl carbamate by HPLC (decomposition rate, half-life)", "format": "physicochemical", "details": "buffer, read-out: half-life τ0,5 (converted)", "experimental": "as §2, with “times. […]” for “times.”\nevaluate of ethyl carbamate stability. A chromatographic column XTerra® Phenyl 3.5 μm, 100 × 4.6 mm (Waters Corp., Milford, MA, USA) was used. The HPLC separation process was monitored by ChemStation for LC 3D systems (Agilent Technologies). Isocratic elution by a mixture of acetonitrile (HPLC grade, 60.0%) and phosphate buffer, pH 2.5 (40%) as a mobile phase was used. The total flow of the column was 1.0 mL/min, injection 20 μL, the time of analysis was 8 min, column temperature 40 °C, and sample temperature 10 °C. The detection wavelength of 254 nm was chosen. The retention time (tR) of carbamate 2 was 4.92 ± 0.05 min and of the pattern anilide 3.12 ± 0.05 min.\nTable S1. Ethyl carbamate 2 decomposition rate and half-life values."}, "[4]": {"assay": "Lipophilicity determination by RP-HPLC (log k, log D)", "format": "physicochemical", "experimental": "Lipophilicity was measured by reversed-phase high performance liquid chromatography (RP-HPLC) under isocratic conditions with methanol as the organic modifier in the aqueous mobile phase and the logarithm of the capacity factor k was calculated, which is used as the lipophilicity index converted to the log P scale. In addition to the log k values, the logarithm of the distribution coefficient DpH at pH 6.5 and 7.4 was determined to clarify the behavior of the compounds under physiological conditions and possible ionization. Instead of water, a buffer of suitable pH was used as part of the mobile phase. In addition to the above-mentioned experimental methods, commercially available ChemBioDraw Ultra 13.0 and ACD/Percepta ver. […] In addition to lipophilicity, other parameters discussed in Ro5, such as molecular weight, number of H-bond donors/acceptors, as well as parameters not reported in Ro5, but characterizing the physicochemical properties of the prepared molecules, such as number of rotatable bonds, were predicted using ACD/Percepta. Moreover, for each R substituent, bulkiness expressed as molar volume (MV [cm^3]), a parameter describing the tail length/branching of each carbamates, was calculated.\nA HPLC separation module Agilent 1200 Series (Agilent Technologies, Santa Clara, CA, USA) equipped with a Dual Absorbance Detector (DAD SL G1315C, Agilent Technologies) was used. A chromatographic column Symmetry® C18 5 μm, 4.6 × 250 mm, Part No. W21751W016 (Waters Corp, Milford, MA, USA) was used. The HPLC separation process was monitored by ChemStation for LC 3D systems (Agilent Technologies). […] The total flow of the column was 1.0 mL/min, injection 20 μL, column temperature 40 °C, and sample temperature 10 °C. The detection wavelength of 210 nm was chosen. A KI methanolic solution was used for the determination of the dead times (tD). Retention times (tR) were measured in minutes. The capacity factors k were calculated according to the formula k = (tR − tD)/tD, where tR is the retention time of the solute, and tD is the dead time obtained using an unretained analyte. The distribution coefficients DpH were calculated according to the formula DpH = (tR − tD)/tD. Each experiment was repeated three times."}}, "note": "Where two headings read alike, the source gives them in different places.", "data": [{"compound": "CCNC(=O)Oc1c(C(=O)Nc2cc(Cl)c(Cl)cc2Cl)ccc2ccccc12", "note": "[Compound 2, 2-[N-(2,4,5-Trichlorophenyl)carbamoyl]naphthalen-1-yl ethyl carbamate]", "values": [{"measurement": "anti-enterococcal activity (in words)", "setting": "[1]; E. faecalis ATCC 29212", "value": "medium activity"}, {"measurement": "MIC", "setting": "[1]; Enterococcus faecalis, ATCC29212, 24 h", "value": 36.6, "unit": "µM"}, {"measurement": "MIC", "setting": "[2]", "value": "0.018 to 0.064", "unit": "µM"}, {"measurement": "half-life", "setting": "[3]; pH 6", "value": 50.1, "unit": "days"}, {"measurement": "half-life", "setting": "[3]; pH 7", "value": 23.2, "unit": "days"}, {"measurement": "half-life", "setting": "[3]; pH 8", "value": 9.12, "unit": "days"}, {"measurement": "lipophilicity (experimental log k/log D, approximate)", "setting": "[4]", "value": "ca. 0.83"}, {"measurement": "log D6.5", "setting": "[4]; RP-HPLC, MeOH 72%/acetate buffered saline pH 6.5", "value": 0.8294}, {"measurement": "log D7.4", "setting": "[4]; RP-HPLC, MeOH 72%/acetate buffered saline pH 7.4", "value": 0.8339}, {"measurement": "log k", "setting": "[4]; RP-HPLC, MeOH 72%/water 28%", "value": 0.8249}]}]}
